# Measured values published in the supplement of paper PMC11208160.
# Assay: recombinant barcode read abundance after kanamycin selection (control-corrected) (log10(CPM+1)); higher = more efficient recombination; sequences stand for … in AGTGCAGAGAAAATCGGCCAGTTTTCTCTGCCTGCAGTCCGCATGCCGT…AGATTTATGCAGCGGACTGCCTTTCTCCCAAAGTGATAAACCGGACAGTATCATGGACCGGTTTTCCCGGTAATCCGTATTTGCAAGGTTGGTTTCACT; site = the 11-nt target
# Protocol: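 Pooled E. coli target-specificity screen for the IS621 bridge recombinase. Each library plasmid pairs an 11-nt target (CT core) with a bridge RNA whose target-binding loop (9-nt LTG + 4-nt RTG) is reprogrammed; the rest of the 177-nt WT IS621 bridge RNA scaffold is fixed. The plasmid is co-electroporated with a WT donor plasmid; recombinase is induced with 0.1 mM IPTG and recombinants are selected on kanamycin. Recombinant barcodes are sequenced, converted to CPM, averaged over two biological replicates and corrected by the unselected control CPM. Molecule = full bridge RNA written as DNA: LTG = specificity nt 1-9, RTG = reverse complement of specificity nt 8-11, in the WT scaffold.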
# 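For recombinant UMI read abundance after kanamycin selection (control-corrected) in this document: IS621 bridge recombinase in Escherichia coli cells against a fixed T5 target plasmid.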
row,Sequence,recombinant barcode read abundance (log10)
1,AAAATACCTTGGGTTCTAACCTGTTGCGG (site AAAATACCTCC),1.68
2,AAAATACCTTGGGTTCTAACCTGTTGCGG (site CAAAGACCTCC),0.12
3,AAAATATCTTGGGTTCTAACCTGTTGCCT (site AAAATATCTAG),0.438
4,AAAATATCTTGGGTTCTAACCTGTTGCCT (site TCGTACCCTTT),0.0268
5,AAAATCTCTTGGGTTCTAACCTGTTGCCT (site AAAATCTCTAG),0.708
6,AAAATCTCTTGGGTTCTAACCTGTTGCCT (site AAACTCGCTAG),0.113
7,AAACTAGCTTGGGTTCTAACCTGTTGCGG (site AAACTAGCTCC),2.27
8,AAACTAGCTTGGGTTCTAACCTGTTGCGG (site CGTGCGCCTAG),0.288
9,AAACTCGCTTGGGTTCTAACCTGTTGCCT (site AAAATCTCTAG),0.322
10,AAACTCGCTTGGGTTCTAACCTGTTGCCT (site AAACTCGCTAG),1.8
11,AAATGGGCTTGGGTTCTAACCTGTTGCGG (site AAATGGGCTCC),2.5
12,AAATGGGCTTGGGTTCTAACCTGTTGCGG (site AGATGAGCTCC),0.166
13,AACAAGACTTGGGTTCTAACCTGTTGCCT (site AACAAGACTAG),1.29
14,AACAAGACTTGGGTTCTAACCTGTTGCCT (site GTACGACCTGT),0.274
15,AACAATACTTGGGTTCTAACCTGTTGCCT (site AACAATACTAG),0.438
16,AACAATACTTGGGTTCTAACCTGTTGCCT (site CTGTGAGCTCT),0.0738
17,AACACGACTTGGGTTCTAACCTGTTGCCT (site AACACGACTAG),0.711
18,AACACGACTTGGGTTCTAACCTGTTGCCT (site GACAGGACTAG),0.165
19,AACACTGCTTGGGTTCTAACCTGTTGCCT (site AACAATGCTAG),0.0705
20,AACACTGCTTGGGTTCTAACCTGTTGCCT (site AACACTGCTAG),1.09
21,AACACTGCTTGGGTTCTAACCTGTTGCCT (site AACAGTGCTAG),0
22,AACACTGCTTGGGTTCTAACCTGTTGCCT (site AACATTGCTAG),0.0625
23,AACAGTACTTGGGTTCTAACCTGTTGCCT (site AACAGTACTAG),0.845
24,AACAGTACTTGGGTTCTAACCTGTTGCCT (site CACAGTACTAG),0.406

row,Sequence,recombinant barcode read abundance (log10)
1,AACAGTACTTGGGTTCTAACCTGTTGCCT (site GACAGTACTAG),0.129
2,AACAGTACTTGGGTTCTAACCTGTTGCCT (site TACAGTACTAG),0.17
3,AACATAACTTGGGTTCTAACCTGTTGCGT (site AACATAACTAC),1.34
4,AACATAACTTGGGTTCTAACCTGTTGCGT (site TGTTGTCCTCA),0.0331
5,AACCCTACTTGGGTTCTAACCTGTTGCCT (site AACCCTACTAG),0.929
6,AACCCTACTTGGGTTCTAACCTGTTGCCT (site CACCCTACTAG),0.328
7,AACCCTACTTGGGTTCTAACCTGTTGCCT (site GACCCTACTAG),0.0455
8,AACCCTACTTGGGTTCTAACCTGTTGCCT (site TACCCTACTAG),0.193
9,AACCGCCCTTGGGTTCTAACCTGTTGCCT (site AACCGCCCTAC),0.899
10,AACCGCCCTTGGGTTCTAACCTGTTGCCT (site AACCGCCCTAG),0.478
11,AACGACGCTTGGGTTCTAACCTGTTGCCT (site AACGACGCTAG),1.02
12,AACGACGCTTGGGTTCTAACCTGTTGCCT (site ACCGAGGCTAG),0.0126
13,AACGCCTCTTGGGTTCTAACCTGTTGCCT (site AACGCCTCTAG),0.389
14,AACGCCTCTTGGGTTCTAACCTGTTGCCT (site CACGCCTCTAG),0.125
15,AACGCCTCTTGGGTTCTAACCTGTTGCCT (site GACGCCTCTAG),0.178
16,AACGCCTCTTGGGTTCTAACCTGTTGCCT (site TACGCCTCTAG),0.274
17,AACGTGTCTTGGGTTCTAACCTGTTGCCT (site AAAGTGTCTAG),0.375
18,AACGTGTCTTGGGTTCTAACCTGTTGCCT (site AACGTGTCTAG),2.57
19,AACGTGTCTTGGGTTCTAACCTGTTGCCT (site AAGGTGTCTAG),0.103
20,AACGTGTCTTGGGTTCTAACCTGTTGCCT (site AATGTGTCTAG),0.543
21,AACTGAACTTGGGTTCTAACCTGTTGCCT (site AACTAAACTAG),0.18
22,AACTGAACTTGGGTTCTAACCTGTTGCCT (site AACTCAACTAG),0.056
23,AACTGAACTTGGGTTCTAACCTGTTGCCT (site AACTGAACTAG),0.459
24,AACTGAACTTGGGTTCTAACCTGTTGCCT (site AACTTAACTAG),0.0689

row,Sequence,recombinant barcode read abundance (log10)
1,AACTTCCCTTGGGTTCTAACCTGTTGCCT (site AACTTCACTAG),0.0364
2,AACTTCCCTTGGGTTCTAACCTGTTGCCT (site AACTTCCCTAG),0.315
3,AACTTCCCTTGGGTTCTAACCTGTTGCCT (site AACTTCGCTAG),0.00996
4,AACTTCCCTTGGGTTCTAACCTGTTGCCT (site AACTTCTCTAG),0.0342
5,AACTTCTCTTGGGTTCTAACCTGTTGCCT (site AACTTCACTAG),0.184
6,AACTTCTCTTGGGTTCTAACCTGTTGCCT (site AACTTCCCTAG),0.242
7,AACTTCTCTTGGGTTCTAACCTGTTGCCT (site AACTTCGCTAG),0.0209
8,AACTTCTCTTGGGTTCTAACCTGTTGCCT (site AACTTCTCTAG),0.917
9,AAGAACACTTGGGTTCTAACCTGTTGCCT (site AAGAACACTAG),2.06
10,AAGAACACTTGGGTTCTAACCTGTTGCCT (site CAGAACACTAG),0.46
11,AAGAACACTTGGGTTCTAACCTGTTGCCT (site GAGAACACTAG),0.233
12,AAGAACACTTGGGTTCTAACCTGTTGCCT (site TAGAACACTAG),1.19
13,AAGAACTCTTGGGTTCTAACCTGTTGCCA (site AAGAACTCTTG),1.11
14,AAGAACTCTTGGGTTCTAACCTGTTGCCA (site GGCGTGCCTAC),0.199
15,AAGACAGCTTGGGTTCTAACCTGTTGCCT (site AAGAAAGCTAG),0.403
16,AAGACAGCTTGGGTTCTAACCTGTTGCCT (site AAGACAGCTAG),1.19
17,AAGACAGCTTGGGTTCTAACCTGTTGCCT (site AAGAGAGCTAG),0.0524
18,AAGACAGCTTGGGTTCTAACCTGTTGCCT (site AAGATAGCTAG),0.0189
19,AAGACCTCTTGGGTTCTAACCTGTTGCTT (site AAGACCTCTAA),1.76
20,AAGACCTCTTGGGTTCTAACCTGTTGCTT (site AAGCCCTCTAA),0.139
21,AAGACCTCTTGGGTTCTAACCTGTTGCTT (site AAGGCCTCTAA),0.255
22,AAGACCTCTTGGGTTCTAACCTGTTGCTT (site AAGTCCTCTAA),0.134
23,AAGACTCCTTGGGTTCTAACCTGTTGCTT (site AACACTCCTAA),0.287
24,AAGACTCCTTGGGTTCTAACCTGTTGCTT (site AAGACTCCTAA),1.05

# Assay: recombinant UMI read abundance after kanamycin selection (control-corrected) (log10(CPM+1)); higher = more efficient recombination; extreme values may be limits of the assay; sequences stand for … in AGTGCAGAGAAAATCGGCCAGTTTTCTCTGCCTGCAGTCCGCATGCCGTGGGACCCCTTGGGTTCTAACCTGTTGCCTAGATTTATGCAGCGGACTGCCTTTCTCCCAAAGTGATAAACCGG…AGGTTGGTTTCACT; site = the 11-nt donor
# How it was run: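 After plating on IPTG (0.07 mM) plus kanamycin, or unselected, in two replicates, recombinant UMIs were PCR-amplified across the donor–target junction and sequenced. The cells were Escherichia coli co-electroporated with a UMI-tagged donor and donor-binding-loop pair library and a target plasmid with a fixed target and T7-inducible IS621 bridge recombinase. Values are log10(CPM+1), with CPM averaged over replicates and scaled by control-derived factors.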
row,Sequence,recombinant UMI read abundance (log10)
1,TTTGTTCCATGGACCGGTTTTCCCGGTAATCCGTATTTGGT (site ATTGTTCCTAC),0.0334
2,TTTGTTCCATGGACCGGTTTTCCCGGTAATCCGTATTTGGT (site CTTGTTCCTAC),0.00622
3,TTTGTTCCATGGACCGGTTTTCCCGGTAATCCGTATTTGGT (site GTTGTTCCTAC),0.0225
4,TTTGTTCCATGGACCGGTTTTCCCGGTAATCCGTATTTGGT (site TTTGTTCCTAC),0.0215
